System: GST-Bcl-2
Experiment: TR-FRET binding assay, Bcl-2
Conditions: TR-FRET Ki values
Outline: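 Ki values come from Wang's competitive-binding equation applied to TR-FRET signal (excitation 340/35 nm; emission 520/525 nm F-Bak peptide, 495/510 nm Tb antibody). Protein, probe and antibody incubated with compound 3 h at room temperature; dilution series began at 50 μM as 2× stock in 10% DMSO.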

Structure (SMILES) | Binding selectivity ratio (Bcl-XL Ki/Bcl-2 Ki)
CN(C)CCCN(C)c1ccc(S(=O)(=O)NC(=O)c2ccc(N3CCN(Cc4ccccc4-c4ccc(Cl)cc4)CC3)cc2Oc2ccccc2)cc1[N+](=O)[O-] [Example 87, 4-{4-[(4′-chloro-1,1′-biphenyl-2-yl)methyl]piperazin-1-yl}-N-({4-[[3-(dimethylamino)propyl](methyl)amino]-3-nitrophenyl}sulfonyl)-2-phenoxybenzamide] | 533.8
CN(C)CCOc1cccc(-c2ccc(Cl)cc2)c1CN1CCN(c2ccc(C(=O)NS(=O)(=O)c3ccc(NCC4CCOCC4)c(S(=O)(=O)C(F)(F)F)c3)c(Oc3ccccc3)c2)CC1 [Example 124, 4-[4-({4′-chloro-3-[2-(dimethylamino)ethoxy]-1,1′-biphenyl-2-yl}methyl)piperazin-1-yl]-2-phenoxy-N-({4-[(tetrahydro-2H-pyran-4-ylmethyl)amino]-3-[(trifluoromethyl)sulfonyl]phenyl}sulfonyl)benzamide] | 220.1
COc1ccc(Nc2ccc(S(=O)(=O)NC(=O)c3ccc(N4CCN(CC5=C(c6ccc(Cl)cc6)CC(C)(C)CC5)CC4)cc3Oc3ccc4[nH]ccc4c3)cc2[N+](=O)[O-])cc1O [EXAMPLE 394, 4-(4-{[2-(4-chlorophenyl)-4,4-dimethylcyclohex-1-en-1-yl]methyl}piperazin-1-yl)-N-({4-[(3-hydroxy-4-methoxyphenyl)amino]-3-nitrophenyl}sulfonyl)-2-(1H-indol-5-yloxy)benzamide] | >263262.863980854
CC(C1=C(c2ccc(Cl)cc2)CC(C)(C)CC1)N1CCN(c2ccc(C(=O)NS(=O)(=O)c3ccc(NC4CCN(C5CCOCC5)CC4)c([N+](=O)[O-])c3)c(Oc3ccc4[nH]ccc4c3)c2)CC1 (centres unmarked) [EXAMPLE 258, 4-(4-{1-[2-(4-chlorophenyl)-4,4-dimethylcyclohex-1-en-1-yl]ethyl}piperazin-1-yl)-2-(1H-indol-5-yloxy)-N-({3-nitro-4-[(1-tetrahydro-2H-pyran-4-ylpiperidin-4-yl)amino]phenyl}sulfonyl)benzamide] | 86
CN1CCC(O)(CNc2ccc(S(=O)(=O)NC(=O)c3ccc(N4CCN(CC5=C(c6ccc(Cl)cc6)CC(C)(C)CC5)CC4)cc3Oc3ccc4[nH]ccc4c3)cc2[N+](=O)[O-])CC1 [EXAMPLE 183, 4-(4-{[2-(4-chlorophenyl)-4,4-dimethylcyclohex-1-en-1-yl]methyl}piperazin-1-yl)-N-[(4-{[(4-hydroxy-1-methylpiperidin-4-yl)methyl]amino}-3-nitrophenyl)sulfonyl]-2-(1H-indol-5-yloxy)benzamide] | 240.5
O=C(NS(=O)(=O)c1ccc(NCCCN2CCOCC2)c([N+](=O)[O-])c1)c1ccc(N2CCN(Cc3ccccc3-c3ccc(Cl)cc3)CC2)cc1Oc1ccc2ccccc2c1 [Example 36, 4-{4-[(4′-chloro-1,1′-biphenyl-2-yl)methyl]piperazin-1-yl}-N-({4-[(3-morpholin-4-ylpropyl)amino]-3-nitrophenyl}sulfonyl)-2-(2-naphthyloxy)benzamide] | 11.3
CN1CCN(Nc2ccc(S(=O)(=O)NC(=O)c3ccc(N4CCN(CC5=C(c6ccc(Cl)cc6)CCC(O)C5)CC4)cc3Oc3ccc4[nH]ccc4c3)cc2[N+](=O)[O-])CC1 (centres unmarked) [EXAMPLE 226, 4-(4-{[2-(4-chlorophenyl)-5-hydroxycyclohex-1-en-1-yl]methyl}piperazin-1-yl)-2-(1H-indol-5-yloxy)-N-({4-[(4-methylpiperazin-1-yl)amino]-3-nitrophenyl}sulfonyl)benzamide] | 577.7
O=C(NS(=O)(=O)c1ccccc1OCCN1CCCCC1)c1ccc(N2CCN(Cc3ccccc3-c3ccc(Cl)cc3)CC2)cc1Oc1ccccc1 [Example 32, 4-{4-[(4′-chloro-1,1′-biphenyl-2-yl)methyl]piperazin-1-yl}-2-phenoxy-N-{[2-(2-piperidin-1-ylethoxy)phenyl]sulfonyl}benzamide] | >10.8
